Experimental data taken from US20110160158A1, “METHODS OF TREATMENT OF BIPOLAR DISORDER” (REPLIGEN CORPORATION, priority 2008, published 2011).

Assays:
[1] = test system: patients with Bipolar I Disorder, Most Recent Episode Depressed; test: Same six-week study: Clinical Global Impression for bipolar disorder (CGI-BP-S / CGI-BP-C); assay type: in vivo, human; conditions: for Average CGI-C-BP (Depression) / Average CGI-C-BP (Overall): 7-point scale, 4 = no change, lower = improved
Description: The CGI-BP scale is a modification of the clinical global impression for use in bipolar disorder as a global assessment of patient severity and change of status (Spearing et al., 1997, Psychiatry Res., 73:159-171). The CGI-BP-S rates the severity of the illness on a 7 point scale. The CGI-BP-C rates the change in the severity of disease compared to baseline. This also uses a 7 point scale, anchored by a score of 4 which correlates to no change since the initiation of treatment. Lower scores correspond to improvement, higher to worsening.
A six-week, double blind, placebo-controlled, dose-escalation study was performed to assess the safety and efficacy of uridine in bipolar I depression. Eight-four (84) patients of both sexes were enrolled at twelve sites, randomized on a 1:1 basis to receive either placebo or uridine. To decrease the probability of a false negative result, uridine or placebo were given as monotherapy, and no concurrent bipolar medications, including mood stabilizers, atypical antipsychotics, antidepressants, anticonvulsants or other psychotropic medications were allowed during the study. Patients taking such medications were tapered gradually during the 28 days prior to initiation of the trial. Patients were evaluated each week over the 6-week trial period, with an extensive intervention plan for any patient having exacerbation of bipolar or depressive symptoms. After the trial period, patients were eligible to initiate therapy for bipolar disease and a follow-up visit occurred at week ten.
Informed consent was provided by all patients.
Subjects in the uridine treatment group were given either 2 g per day (low dose) or 4 g per day (high dose) of uridine. Subjects in the placebo group were given tablets of identical size and appearance with identical dosing instructions.
A dose of 1 g orally twice daily (2 g/day) was chosen to initiate treatment, with an increase to 2 g orally twice daily (4 g/day) in the absence of clinical improvement. On Day 1, all patients received a single dose of either placebo or uridine (2 g). This loading dose was done in order to compare pharmacokinetics of uridine at study start and end. Beginning on Day 2, patients received either placebo and uridine at a dose of 2 g/day administered as 1 g orally twice daily (2 tablets twice daily) for one week. At the Day 8 visit, the dose was increased to 4 g/day administered as 2 g orally twice daily (4 tablets twice daily) if there had been no serious untoward drug-related adverse events, and if the subject had less than a 25% improvement on the MADRS from baseline (Day 1). Patients that remained on 2 g/day were increased to 4 g/day at a subsequent visit if the improvement from baseline on the MADRS was less than 25%. Likewise, subjects having adverse events at the high dose were decreased to the low dose at the discretion of the investigator. On Day 43, all patients received a single dose of either placebo or uridine administered as 2 g orally twice daily (4 tablets twice daily), regardless of dose regimen. This was the patients' last dose of study drug.
The CGI-BP is a clinical impression scale that has been adapted for bipolar disorder and is comprised of an overall score, a depression score and a mania score. The CGI in this study used the severity of disease (CGI-BP-S) at study day 1 as the anchor point and the change from baseline (CGI-BP-C) in subsequent evaluations. Each assessment was intended to measure the change from the study start. The severity of disease (baseline) was similar between groups (Uridine=4.48; Placebo=4.68, n.s.), which are similar in magnitude to published efficacy trials in bipolar I depression (Brown et al., 2006, J. Clin. Psychiatry, 67:1025-33; Calabrese et al., 1999, J. Clin. Psychiatry, 60:79-88; Thase et al., 2006, J. Clin. Psychiatry, 26:600-609; Tohen et al., 2003, Arch. Gen. Psychiatry, 60:1079-88; Goldberg et al., 2007, Am. J. Psychiatry, 164:1348-55; Nierenberg et al., 2006, Am. J. Psychiatry, 163:210-216). […]

[2] = test system: patients (e.g. hereditary orotic aciduria); conditions: cited from earlier work
[3] = test system: patients undergoing cancer chemotherapy; conditions: cited from earlier work
[4] = test system: patients with Bipolar I Disorder, Most Recent Episode Depressed; test: Six-week double blind placebo-controlled dose-escalation study of uridine in bipolar I depression: MADRS; assay type: in vivo, human; conditions: for True difference in mean MADRS between groups (uridine vs placebo): week 6; for Mean change of MADRS from baseline (treatment response), percent: total group; for Average improvement on MADRS over placebo: weeks 2-6
[5] = in vivo; cited from earlier work
[6] = Wk 10, follow-up a month after treatment concluded

## O=c1ccn([C@@H]2O[C@H](CO)[C@@H](O)[C@H]2O)c(=O)[nH]1 [uridine]
[1]; CGI-BP-C overall, p=0.044
  Change in CGI vs placebo, MERM analysis of the treatment period: significant difference
[1]; Wk 1
  Average CGI-C-BP (Depression): 3.05
  Average CGI-C-BP (Overall): 3.19
[1]; Wk 2
  Average CGI-C-BP (Depression): 2.72
  Average CGI-C-BP (Overall): 2.92
[1]; Wk 3
  Average CGI-C-BP (Depression): 2.31
  Average CGI-C-BP (Overall): 2.45
[1]; Wk 4
  Average CGI-C-BP (Depression): 2.10
  Average CGI-C-BP (Overall): 2.33
[1]; Wk 5
  Average CGI-C-BP (Depression): 2.14
  Average CGI-C-BP (Overall): 2.31
[1]; Wk 6
  Average CGI-C-BP (Depression): 2.03
  Average CGI-C-BP (Overall): 2.21
[2]; dosages higher than 1000 mg/kg/day
  Effect of higher dosages in some patients: mild diarrhea
[2]; dosages of up to 1000 mg/kg/day
  Toxic effects of pure uridine, long-term experience: no known toxic effects
[2]; oral, doses greater than 240 mg/kg
  Plasma uridine levels: 60 to 80 µM
[2]; oral, typically at doses greater than 240 mg/kg
  Side effects noted with high dose oral uridine: diarrhea and abdominal cramps
[3]
  Main side effects seen with IV uridine: infusion site phlebitis and transient shivering and fever
[3]; intravenous, cancer chemotherapy context
  Sustained elevations in plasma uridine: exceeding 2,000 μM
[4]; Baseline (Study Day 1)
  MADRS change from baseline, as percentage of the baseline score, Δ (%): 0%
[4]; Baseline (Study Day 1), all patients
  Average MADRS score: 30.28
[4]; Day 43, subjects with <2 episodes of mania or hypomania
  Difference in change from baseline of average MADRS vs placebo (Δ): −8.2
[4]; Day 43, subjects with <10 episodes of depression
  Difference in change from baseline of average MADRS vs placebo (Δ): −1.7
[4]; Day 43, subjects with ≧10 episodes of depression, p=0.18
  Difference in change from baseline of average MADRS vs placebo (Δ): 5.8
[4]; Wk 1
  MADRS change from baseline, as percentage of the baseline score, Δ (%): −25.8%
[4]; Wk 1, oral 2-4 g/day, all patients
  Average MADRS score: 22.46
[4]; Wk 2
  MADRS change from baseline, as percentage of the baseline score, Δ (%): −37.9%
[4]; Wk 2, oral 2-4 g/day, all patients
  Average MADRS score: 18.81
[4]; Wk 3
  MADRS change from baseline, as percentage of the baseline score, Δ (%): −52.5%
[4]; Wk 3, oral 2-4 g/day, all patients
  Average MADRS score: 15.90
[4]; Wk 4
  MADRS change from baseline, as percentage of the baseline score, Δ (%): −54.0%
[4]; Wk 4, oral 2-4 g/day, all patients
  Average MADRS score: 13.93
[4]; Wk 5
  MADRS change from baseline, as percentage of the baseline score, Δ (%): −50.6%
[4]; Wk 5, oral 2-4 g/day, all patients
  Average MADRS score: 14.97
[4]; Wk 6
  MADRS change from baseline, as percentage of the baseline score, Δ (%): −58.1%
[4]; Wk 6 (end of treatment), oral 2-4 g/day, all patients
  Average MADRS score: 12.69
[4]; [6]
  Average MADRS score: 15.91
  MADRS change from baseline, as percentage of the baseline score, Δ (%): −47.5%
[4]; baseline adjusted as a covariate, all patients
  Effect size from MERM change in mean MADRS score compared to placebo: 0.43
[4]; final assessment 4 weeks after study drug administration was completed
  Rebound in the MADRS assessment after end of dosing: no rebound
[4]; mixed effects repeat measures, day 1 to day 43, total scores p=0.011, percent change from baseline p=0.014
  Difference of the mean MADRS scores in comparison to placebo (primary efficacy outcome): statistically significant
[4]; patients with <5 manic episodes, Day 1
  Improvement in MADRS score (Uridine vs Placebo): −0.64
[4]; patients with <5 manic episodes, Day 8
  Improvement in MADRS score (Uridine vs Placebo): −3.57
[4]; patients with <5 manic episodes, Day 15
  Improvement in MADRS score (Uridine vs Placebo): −1.39
[4]; patients with <5 manic episodes, Day 22
  Improvement in MADRS score (Uridine vs Placebo): −1.20
[4]; patients with <5 manic episodes, Day 29
  Improvement in MADRS score (Uridine vs Placebo): −1.76
[4]; patients with <5 manic episodes, Day 36
  Improvement in MADRS score (Uridine vs Placebo): −4.62
[4]; patients with <5 manic episodes, Day 43
  Improvement in MADRS score (Uridine vs Placebo): −6.56
[4]; patients with a history of fewer than 2 episodes of mania
  Response (MADRS vs placebo): No positive response
[4]; patients with ≧5 manic episodes, Day 1
  Improvement in MADRS score (Uridine vs Placebo): 0.37
[4]; patients with ≧5 manic episodes, Day 8
  Improvement in MADRS score (Uridine vs Placebo): 1.63
[4]; patients with ≧5 manic episodes, Day 15
  Improvement in MADRS score (Uridine vs Placebo): 4.41
[4]; patients with ≧5 manic episodes, Day 22
  Improvement in MADRS score (Uridine vs Placebo): 6.33
[4]; patients with ≧5 manic episodes, Day 29
  Improvement in MADRS score (Uridine vs Placebo): 7.07
[4]; patients with ≧5 manic episodes, Day 36
  Improvement in MADRS score (Uridine vs Placebo): 3.20
[4]; patients with ≧5 manic episodes, Day 43 (week 6)
  Improvement in MADRS score (Uridine vs Placebo): 5.88
[4]; study end (week 6), subset with 15 or more episodes of depression
  Treatment response, MADRS change from baseline: 58%
[4]; study end, subset with <15 historic episodes of depression
  MADRS improvement from baseline: 58%
[4]; subset with <15 historic episodes of depression (49 subjects)
  Difference in mean MADRS scores between treatment and placebo groups: no appreciable difference
[4]; week 3 to week 6, all patients
  Average true difference in mean MADRS (corrected for baseline) vs placebo: 3.2 points
[4]; week 6 (Day 43), subjects with ≧2 episodes of mania or hypomania, p=0.11
  True difference in mean MADRS vs placebo (Δ): 5.7
[4]; subjects with 15 or more episodes of mania and/or hypomania
  True difference in mean MADRS between groups (uridine vs placebo): 9.46
[4]; subjects with history of 15 or more episodes of depression
  True difference in mean MADRS between groups (uridine vs placebo): 6.35
[4]; total score (all subjects)
  True difference in mean MADRS between groups (uridine vs placebo): 3.04
[4]; week 6 end of study, all patients
  Mean change of MADRS from baseline: 17.6 points
[4]; week 6 end of study
  Mean change of MADRS from baseline (treatment response), percent: 58%
[4]; week 6 end of study, listed as RG2417
  Mean change of MADRS from baseline (treatment response), percent: 58.1%
[4]; all patients in the study, p=0.01
  Average improvement on MADRS over placebo: 3.0 points
[4]; patients with more than 5 episodes of depression (n=50), p<0.001
  Average improvement on MADRS over placebo: 5.5 points
[5]
  Volume distribution: around 0.634 liters/kg
